# From US11324706B2, “Composition for inhibiting growth of breast cancer stem cells containing phenylacetaldehyde” (JEJU NATIONAL UNIVERSITY INDUSTRY-ACADEMIC COOPERATION …, priority 2016, dated 2022)
# Experiments:
# [1] = tested on: nuclear p65; experiment: Western blotting of mammosphere nuclear proteins, p65; assay type: cell-based, human; conditions: MCF-7-derived mammospheres
# Procedure: The proteins isolated from mammospheres of PAA-treated MCF-7 were separated on 10% SDS-PAGE and transferred to a polyvinylidene difluoride membrane (Millipore, Bedford, Mass., USA). The membrane was blocked in 5% skim milk-containing PBS-Tween 20 (0.1%, v/v) for 30 minutes at room temperature. The blot was cultured at 4° C. in a blocking solution containing primary antibodies overnight. The used primary antibodies were as follows: Stat3, p65, Lamin B, and phospho-Stat3 (Cell Signaling, Beverly, Mass., USA). β-actin antibodies (Santa Cruz Biotechnology) were used as a loading control group. After washing with PBS-Tween 20 (0.1%, v/v), the blot was cultured in a horseradish peroxidase-conjugated secondary antibody and subjected to photosensitive treatment with a chemiluminescent detection kit (Santa Cruz Biotechnology).
# In order to investigate cellular functions of PAA, STAT3 and NF-κB pathways were investigated in MCF-7-derived mammospheres subjected to treatment with PAA. As compared to the control group, PAA reduced phosphorylation of nuclear STAT3 proteins.
# [2] = tested on: MDA-MB-231 cells; experiment: Annexin V/PI staining analysis (FACS); assay type: cell-based, human; conditions: MDA-MB-231, PAA 0.2 mM, 24 hours
# Procedure: (FIGS. 1D, E and F) show effects of PAA on apoptosis of breast cancer cells. MDA-MB-231 cells were treated with PAA for 24 hours, and apoptotic cells were analyzed by FACS using an Annexin V-PI staining kit. Caspase 3/7 activity in MDA-MB-231 cells was analyzed using a Caspase-Gloss 3/7 kit. By fluorescent staining, apoptotic cells were analyzed and nuclei thereof were stained with Hoechst 33258 in breast cancers (magnified, 200×) (FIG. 1);
# […] In accordance with the manufacturer's instructions, the cancer cells were double-stained with PI and FITC-Annexin V. The sample was analyzed by flow cytometry (Accuri C6, BD, San Diego, Calif., USA).
structure (smiles),measurement,setting,value
"O=CCc1ccccc1 [PAA, phenylacetaldehyde]",protein levels of nuclear p65,[1],did not reduce
same,number of breast cancer cells (Annexin V+) killed,[2],increased
